According to patent US6573218B1, “Fused-benzene derivatives useful as herbicides” (Ishihara Sangyo Kaisha, Ltd., priority 1998, dated 2003):

What was measured:
Type in all cases: in vivo
[1] = tested on: field corn (Zea mays L., var. Dekalb 527, CORN); experiment: Post-emerge greenhouse crop damage test
Source text: (§1) A standard greenhouse herbicide activity screening system was used to evaluate the herbicidal efficacy and crop safety of these test compounds. Seven broadleaf weed species including redroot pigweed (Amaranthus retroflexus, AMARE), velvetleaf (Abutilon theophrasti, ABUTH), sicklepod (Cassia obtusifolia, CASOB), ivyleaf morningglory (Ipomoea hederacea, IPOHE), lambsquarters (Chenopodium album, CHEAL), common ragweed (Ambrosia artemisiifolia L., AMBEL), and cocklebur (Xanthium strumarium, XANST) were used as test species. Four grass weed species including green foxtail (Setaria viridis, SETVI), barnyardgrass (Echinochloa crus-galli, ECHCG), johnsongrass (Sorghum halepense, SORHA), and large crabgrass (Digitaria sanguinalis, DIGSA) were also used. In addition, three crop species, field corn (Zea mays L., var. Dekalb 527, CORN), soybean (Glycine max L., var. Pella 86, SOY), and upland rice (Ory0a sp., var.Tebonnet, RICE) were included.
(§2) All plants were grown in 10 cm square plastic pots which were filled with a sandy loam soil mix. For pre-emerge tests, seeds were planted one day prior to application of the test compounds. For post-emerge tests, seeds were planted 8-21 days prior to the test to allow emergence and good foliage development prior to application of the test substances. At the time of the post-emerge application, plants of all species were usually at the 2-3 leaf stage of development.
(§3) All test compounds were dissolved in acetone and applied to the test units in a volume of 187 l/ha. Test materials were applied at rates ranging from 15 g ai/ha to 1000 g ai/ha using a track sprayer equipped with a TJ8001E even flow flat fan spray nozzle. Plants were arranged on a shelf so that the top of the canopy (post-emerge) or top of the soil surface (pre-emerge) was 40-45 cm below the nozzle. Pressurized air was used to force the test solution through the nozzle as it was mechanically advanced over the top of all test plants/pots. This application simulates a typical commercial field herbicide application.
(§4) In the post-emerge test, a commercial non-ionic surfactant was also included (0.25% v/v) to enhance wetting of the leaf surfaces of target plants. Immediately after application, test units of the pre-emerge applications were watered at the soil surface to incorporate the test materials.
(§5) At 14 days after application of the test materials, phytotoxicity ratings were recorded. A rating scale of 0-100 was used as previously described in Research Methods in Weed Science, 2nd edition, B. Truelove, Ed., Southern Weed Science Society, Auburn University, Auburn, Ala., 1977. Briefly, “0” corresponds to no damage and “100” corresponds to complete death of all plants in the test unit. This scale was used both to determine efficacy against weed species and damage to crop species. Herbicide activity data for various compounds of this invention, which are shown by compound No. in Tables 1-14, are shown in Tables 16 and 17.

[2] = tested on: soybean (Glycine max L., var. Pella 86, SOY); experiment: Post-emerge greenhouse crop damage test
Source text: as §1, §2, §3, §4, §5

[3] = tested on: upland rice (Ory0a sp., var.Tebonnet, RICE); experiment: Post-emerge greenhouse crop damage test
Source text: as §1, §2, §3, §4, §5

[4] = tested on: velvetleaf (Abutilon theophrasti, ABUTH); experiment: Post-emerge greenhouse herbicide test; conditions: 14 days after application
Source text: as §1, §2, §3, §4, §5

[5] = tested on: lambsquarters (Chenopodium album, CHEAL); experiment: Post-emerge greenhouse herbicide test; conditions: 14 days after application
Source text: as §1, §2, §3, §4, §5

[6] = tested on: green foxtail (Setaria viridis, SETVI); experiment: Post-emerge greenhouse herbicide test; conditions: 14 days after application
Source text: as §1, §2, §3, §4, §5

[7] = tested on: ivyleaf morningglory (Ipomoea hederacea, IPOHE); experiment: Post-emerge greenhouse herbicide test; conditions: 14 days after application
Source text: as §1, §2, §3, §4, §5

[8] = tested on: redroot pigweed (Amaranthus retroflexus, AMARE); experiment: Post-emerge greenhouse herbicide test; conditions: 14 days after application
Source text: as §1, §2, §3, §4, §5

[9] = tested on: large crabgrass (Digitaria sanguinalis, DIGSA); experiment: Post-emerge greenhouse herbicide test; conditions: 14 days after application
Source text: as §1, §2, §3, §4, §5

[10] = tested on: sicklepod (Cassia obtusifolia, CASOB); experiment: Post-emerge greenhouse herbicide test; conditions: 14 days after application
Source text: as §1, §2, §3, §4, §5

[11] = tested on: barnyardgrass (Echinochloa crus-galli, ECHCG); experiment: Post-emerge greenhouse herbicide test; conditions: 14 days after application
Source text: as §1, §2, §3, §4, §5

[12] = tested on: field corn (Zea mays L., var. Dekalb 527, CORN); experiment: Pre-emerge greenhouse crop damage test
Source text: as §1, §2, §3, §4, §5

[13] = tested on: soybean (Glycine max L., var. Pella 86, SOY); experiment: Pre-emerge greenhouse crop damage test
Source text: as §1, §2, §3, §4, §5

[14] = tested on: upland rice (Ory0a sp., var.Tebonnet, RICE); experiment: Pre-emerge greenhouse crop damage test
Source text: as §1, §2, §3, §4, §5

[15] = tested on: velvetleaf (Abutilon theophrasti, ABUTH); experiment: Pre-emerge greenhouse herbicide test; conditions: 14 days after application, scale 0-100 (0 no damage, 100 complete death)
Source text: as §1, §2, §3, §4, §5

[16] = tested on: lambsquarters (Chenopodium album, CHEAL); experiment: Pre-emerge greenhouse herbicide test; conditions: 14 days after application, scale 0-100 (0 no damage, 100 complete death)
Source text: as §1, §2, §3, §4, §5

[17] = tested on: green foxtail (Setaria viridis, SETVI); experiment: Pre-emerge greenhouse herbicide test; conditions: 14 days after application, scale 0-100 (0 no damage, 100 complete death)
Source text: as §1, §2, §3, §4, §5

[18] = tested on: ivyleaf morningglory (Ipomoea hederacea, IPOHE); experiment: Pre-emerge greenhouse herbicide test; conditions: 14 days after application, scale 0-100 (0 no damage, 100 complete death)
Source text: as §1, §2, §3, §4, §5

[19] = tested on: redroot pigweed (Amaranthus retroflexus, AMARE); experiment: Pre-emerge greenhouse herbicide test; conditions: 14 days after application, scale 0-100 (0 no damage, 100 complete death)
Source text: as §1, §2, §3, §4, §5

[20] = tested on: large crabgrass (Digitaria sanguinalis, DIGSA); experiment: Pre-emerge greenhouse herbicide test; conditions: 14 days after application, scale 0-100 (0 no damage, 100 complete death)
Source text: as §1, §2, §3, §4, §5

[21] = tested on: sicklepod (Cassia obtusifolia, CASOB); experiment: Pre-emerge greenhouse herbicide test; conditions: 14 days after application, scale 0-100 (0 no damage, 100 complete death)
Source text: as §1, §2, §3, §4, §5

[22] = tested on: barnyardgrass (Echinochloa crus-galli, ECHCG); experiment: Pre-emerge greenhouse herbicide test; conditions: 14 days after application, scale 0-100 (0 no damage, 100 complete death)
Source text: as §1, §2, §3, §4, §5

[23] = tested on: johnsongrass (Sorghum halepense, SORHA); experiment: Pre-emerge greenhouse herbicide test; conditions: 250 g ai/ha, 14 days after application, scale 0-100 (0 no damage, 100 complete death)
Source text: as §1, §2, §3, §4, §5

[24] = var. Dekalb 527, field corn (Zea mays L.), in vivo, 14 days
[25] = var. Pella 86, soybean (Glycine max L.), in vivo, 14 days
[26] = var. Tebonnet, upland rice (Ory0a sp.), in vivo, 14 days
[27] = 250 g ai/ha, post-emerge, 14 days after application
[28] = pre-emerge, 250 g ai/ha, 14 days after application, scale 0-100 (0 no damage, 100 complete death)

Cn1c(C(F)(F)F)cc(=O)n(-c2ccc(Cl)c3ccccc23)c1=O [Compound 5-1, 3-(4-Chloronaphthalen-1-yl)-1-methyl-6-trifluoromethyl-2,4(1H,3H)-pyrimidindione]
Post-emerge crop damage CORN (phytotoxicity rating 0-100) [1, 24]: 0 | Post-emerge crop damage SOY (phytotoxicity rating 0-100) [2, 25]: 0 | Post-emerge crop damage RICE (phytotoxicity rating 0-100) [3, 26]: 0 | Post-emerge Herbicidal Activity ABUTH (phytotoxicity rating 0-100) ([4]; 500 g ai/ha): 100 | Post-emerge Herbicidal Activity CHEAL (phytotoxicity rating 0-100) ([5]; 500 g ai/ha): 100 | Post-emerge Herbicidal Activity SETVI (phytotoxicity rating 0-100) ([6]; 500 g ai/ha): 100 | Post-emerge Herbicidal Activity IPOHE (phytotoxicity rating 0-100) ([7]; 500 g ai/ha): 60 | Post-emerge Herbicidal Activity AMARE (phytotoxicity rating 0-100) ([8]; 500 g ai/ha): 100 | Post-emerge Herbicidal Activity DIGSA (phytotoxicity rating 0-100) ([9]; 500 g ai/ha): 60 | Post-emerge Herbicidal Activity CASOB (phytotoxicity rating 0-100) ([10]; 500 g ai/ha): 60 | Post-emerge Herbicidal Activity ECHCG (phytotoxicity rating 0-100) ([11]; 500 g ai/ha): 70 | Pre-emerge Herbicidal Activity CORN (crop damage rating) [12, 24]: 70 | Pre-emerge Herbicidal Activity SOY (crop damage rating) [13, 25]: 70 | Pre-emerge Herbicidal Activity RICE (crop damage rating) [14, 26]: 70 | Pre-emerge Herbicidal Activity ABUTH (phytotoxicity rating) ([15]; 500 g ai/ha): 100 | Pre-emerge Herbicidal Activity CHEAL (phytotoxicity rating) ([16]; 500 g ai/ha): 100 | Pre-emerge Herbicidal Activity SETVI (phytotoxicity rating) ([17]; 500 g ai/ha): 100 | Pre-emerge Herbicidal Activity IPOHE (phytotoxicity rating) ([18]; 500 g ai/ha): 60 | Pre-emerge Herbicidal Activity AMARE (phytotoxicity rating) ([19]; 500 g ai/ha): 100 | Pre-emerge Herbicidal Activity DIGSA (phytotoxicity rating) ([20]; 500 g ai/ha): 98 | Pre-emerge Herbicidal Activity CASOB (phytotoxicity rating) ([21]; 500 g ai/ha): 60 | Pre-emerge Herbicidal Activity ECHCG (phytotoxicity rating) ([22]; 500 g ai/ha): 60

Nn1c(C(F)(F)F)cc(=O)n(-c2c(F)cc(Cl)c3c2NC(=O)CO3)c1=O [Compound 4-2]
Post-emerge crop damage CORN (phytotoxicity rating 0-100) [1, 27]: 90 | Post-emerge crop damage SOY (phytotoxicity rating 0-100) [2, 27]: 100 | Post-emerge crop damage RICE (phytotoxicity rating 0-100) [3, 27]: 90 | Post-emerge Herbicidal Activity ABUTH (phytotoxicity rating 0-100) ([4]; 250 g ai/ha): 100 | Post-emerge Herbicidal Activity CHEAL (phytotoxicity rating 0-100) ([5]; 250 g ai/ha): 100 | Post-emerge Herbicidal Activity SETVI (phytotoxicity rating 0-100) ([6]; 250 g ai/ha): 40 | Post-emerge Herbicidal Activity IPOHE (phytotoxicity rating 0-100) ([7]; 250 g ai/ha): 100 | Post-emerge Herbicidal Activity AMARE (phytotoxicity rating 0-100) ([8]; 250 g ai/ha): 100 | Post-emerge Herbicidal Activity DIGSA (phytotoxicity rating 0-100) ([9]; 250 g ai/ha): 20 | Post-emerge Herbicidal Activity CASOB (phytotoxicity rating 0-100) ([10]; 250 g ai/ha): 90 | Post-emerge Herbicidal Activity ECHCG (phytotoxicity rating 0-100) ([11]; 250 g ai/ha): 60 | Pre-emerge Herbicidal Activity CORN (crop damage rating) [12, 28]: 100 | Pre-emerge Herbicidal Activity SOY (crop damage rating) [13, 28]: 95 | Pre-emerge Herbicidal Activity RICE (crop damage rating) ([14]; in vivo): 90 | Pre-emerge Herbicidal Activity ABUTH (phytotoxicity rating) ([15]; 250 g ai/ha): 100 | Pre-emerge Herbicidal Activity CHEAL (phytotoxicity rating) ([16]; 250 g ai/ha): 100 | Pre-emerge Herbicidal Activity SETVI (phytotoxicity rating) ([17]; 250 g ai/ha): 80 | Pre-emerge Herbicidal Activity IPOHE (phytotoxicity rating) ([18]; 250 g ai/ha): 100 | Pre-emerge Herbicidal Activity AMARE (phytotoxicity rating) ([19]; 250 g ai/ha): 100 | Pre-emerge Herbicidal Activity DIGSA (phytotoxicity rating) ([20]; 250 g ai/ha): 70 | Pre-emerge Herbicidal Activity CASOB (phytotoxicity rating) ([21]; 250 g ai/ha): 100 | Pre-emerge Herbicidal Activity ECHCG (phytotoxicity rating) ([22]; 250 g ai/ha): 80 | Pre-emerge Herbicidal Activity SORHA (phytotoxicity rating) [23]: 65

CCc1nc2c(N3C(=O)C4CCCCN4C3=O)c(F)cc(Cl)c2o1 (centres unmarked) [Compound 7-9]
Pre-emerge Herbicidal Activity CORN (crop damage rating) [12, 28]: 0 | Pre-emerge Herbicidal Activity SOY (crop damage rating) [13, 28]: 15 | Pre-emerge Herbicidal Activity RICE (crop damage rating) [14, 28]: 10 | Pre-emerge Herbicidal Activity ABUTH (phytotoxicity rating) ([15]; 250 g ai/ha): 50 | Pre-emerge Herbicidal Activity CHEAL (phytotoxicity rating) ([16]; 250 g ai/ha): 100 | Pre-emerge Herbicidal Activity SETVI (phytotoxicity rating) ([17]; 250 g ai/ha): 40 | Pre-emerge Herbicidal Activity IPOHE (phytotoxicity rating) ([18]; 250 g ai/ha): 20 | Pre-emerge Herbicidal Activity AMARE (phytotoxicity rating) ([19]; 250 g ai/ha): 100 | Pre-emerge Herbicidal Activity DIGSA (phytotoxicity rating) ([20]; 250 g ai/ha): 30 | Pre-emerge Herbicidal Activity CASOB (phytotoxicity rating) ([21]; 250 g ai/ha): 10 | Pre-emerge Herbicidal Activity ECHCG (phytotoxicity rating) ([22]; 250 g ai/ha): 10
